The record followed here is patent US9914736B2, “TrKA kinase inhibitors, compositions and methods thereof” (Merck Sharp & Dohme Corp., priority 2014, dated 2018).

As a reminder, the IC50 is the concentration that gives 50% inhibition. Read a low IC50 as higher potency.

In the assay the target is human TrkA receptor (Homo sapiens (Human), UniProt P04629). Briefly: DiscoverX PathHunter TrkA functional assay. The assay is classed as cell-based. To be noted: U2OS cells expressing human TrkA-ProLink, Shc1-EA and p75NTR; compound 1 h, then NGF at ~80% of maximal response for 3 h; luminescence.
Sequence of human TrkA receptor (P04629 33-796): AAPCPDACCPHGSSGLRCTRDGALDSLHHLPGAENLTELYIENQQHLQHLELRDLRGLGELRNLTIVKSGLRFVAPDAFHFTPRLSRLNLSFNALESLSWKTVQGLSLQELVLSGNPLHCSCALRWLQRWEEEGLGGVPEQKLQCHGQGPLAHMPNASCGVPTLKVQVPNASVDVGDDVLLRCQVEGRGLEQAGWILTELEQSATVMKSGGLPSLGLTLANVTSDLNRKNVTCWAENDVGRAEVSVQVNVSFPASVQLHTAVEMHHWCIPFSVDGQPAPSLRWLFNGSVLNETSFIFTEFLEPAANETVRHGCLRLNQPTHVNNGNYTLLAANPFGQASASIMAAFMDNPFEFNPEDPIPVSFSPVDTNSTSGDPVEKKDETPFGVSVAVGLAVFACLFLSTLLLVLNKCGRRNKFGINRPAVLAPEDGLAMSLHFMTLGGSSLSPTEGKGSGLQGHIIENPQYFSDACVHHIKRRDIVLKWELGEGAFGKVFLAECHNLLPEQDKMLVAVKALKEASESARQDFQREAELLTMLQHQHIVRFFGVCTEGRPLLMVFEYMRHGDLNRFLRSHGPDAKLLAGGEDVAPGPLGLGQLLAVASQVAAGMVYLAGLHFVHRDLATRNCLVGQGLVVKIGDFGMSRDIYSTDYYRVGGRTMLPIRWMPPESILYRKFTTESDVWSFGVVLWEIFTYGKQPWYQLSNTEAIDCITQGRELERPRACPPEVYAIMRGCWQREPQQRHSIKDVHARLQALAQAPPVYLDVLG

Method: TrkA functional activity was measured using a DiscoverX PathHunter assay. In this assay, U2OS cells express the human TrkA receptor as a fusion with the weakly complementing fragment of B-galactosidase, which DiscoverX calls “Prolink (PK)”; additionally, Shc1 is fused with a larger fragment, which is called “Enzyme Acceptor (EA)”. Activation of the TrkA receptor, upon NGF addition, results in the kinase domain being phosphorylated, resulting in subsequent recruitment of Shc1-EA protein. That recruitment results in an active B-galactosidase enzyme that is detected by addition of a chemiluminescent substrate. The human p75^NTR protein was also expressed as a co-receptor for NGF.
All reagents were purchased from DiscoverX, except for the receptor agonists (NGF, BDNF, NT3) which were purchased from Peprotech. Cells were expanded and frozen into cryovials, and stored in the vapor phase of liquid nitrogen, and thawed immediately before use. Thawed cells were added to a 384-well plate at 7500 cells/well, and allowed to incubate overnight. Compound at various concentrations was added the following morning and allowed to incubate on cells for 1 h. Then, NGF was added at a concentration sufficient to elicit ˜80% of a maximal response and allowed to incubate for 3 h at ambient temperature. DiscoverX PathHunter detection reagent was then added and the plate was further incubated for 1 h in the dark. The plate was then read via luminescence on the Perkin Elmer Envision.

The molecule `CC(O)c1ccc(-c2cc(NC(=O)c3cc(-c4ncccn4)c(C(F)(F)F)cc3F)n(-c3ccc(F)cc3)n2)nc1` (single isomer, unassigned) [Compound 100, (S or R)-2-fluoro-N-(1-(4-fluorophenyl)-3-(5-(1-hydroxyethyl)pyridin-2-yl)-1H-pyrazol-5-yl)-5-(pyrimidin-2-yl)-4-(trifluoromethyl)benzamide] displayed an IC50 of 12 nM.
On to `CC(O)c1cnc(-c2cc(NC(=O)c3cc(-c4ccn(C)n4)c(C(F)(F)F)cc3F)n(-c3ccc(F)cc3)n2)nc1` (single isomer, unassigned) [Compound 107, (S or R)-2-fluoro-N-(1-(4-fluorophenyl)-3-(5-(1-hydroxyethyl)pyrimidin-2-yl)-1H-pyrazol-5-yl)-5-(1-methyl-1H-pyrazol-3-yl)-4-(trifluoromethyl)benzamide], for which the IC50 amounted to 1 nM.
On to `Cn1ccc(-c2cc(C(=O)Nc3cc(Cc4cnc(N)cn4)nn3-c3ccc(F)cc3)ccc2C(F)(F)F)n1` [Compound 94, N-(3-((5-aminopyrazin-2-yl)methyl)-1-(4-fluorophenyl)-1H-pyrazol-5-yl)-3-(1-methyl-1H-pyrazol-3-yl)-4-(trifluoromethyl)benzamide], for which the IC50 was determined as 1.7 nM.
Next, `NC(=O)OCc1cc(NC(=O)c2cc(-c3ncccn3)c(C(F)(F)F)cc2F)n(-c2ccc(F)cc2)n1` [Compound 110, (5-(2-fluoro-5-(pyrimidin-2-yl)-4-(trifluoromethyl)benzamido)-1-(4-fluorophenyl)-1H-pyrazol-3-yl)methyl carbamate]: 7 nM.
Turning to `O=C(Nc1sc(-c2cnn(CCO)c2)nc1-c1ccccc1)c1cc(-c2ncccn2)c(C(F)(F)F)cc1F` [Compound 106, 2-fluoro-N-(2-(1-(2-hydroxyethyl)-1H-pyrazol-4-yl)-4-phenylthiazol-5-yl)-5-(pyrimidin-2-yl)-4-(trifluoromethyl)benzamide], the IC50 stood at 6.7 nM.
To `Cn1nnnc1Cc1cc(NC(=O)c2cc(-c3ncccn3)c(C(F)(F)F)cc2F)n(-c2ccc(F)cc2)n1` [Compound 104, 2-fluoro-N-(1-(4-fluorophenyl)-3-((1-methyl-1H-tetrazol-5-yl)methyl)-1H-pyrazol-5-yl)-5-(pyrimidin-2-yl)-4-(trifluoromethyl)benzamide] belongs 1.6 nM; to `Cc1coc(-c2cc(C(=O)Nc3cc(-c4cn[nH]c4)nn3-c3cc(C)[nH]n3)ccc2C(F)(F)F)n1` [Compound 61, 3-(4-methyl-1,3-oxazol-2-yl)-N-(5-methyl-1H,1″H-3,1′:3′,4″-terpyrazol-5′-yl)-4-(trifluoromethyl)benzamide], 3.1 nM.
For the molecule `Cn1ccc(-c2cc(C(=O)Nc3cc(CN4C(=O)CNC4=O)nn3-c3ccc(F)cc3)c(F)cc2C(F)(F)F)n1` [Compound 112, N-(3-((2,5-dioxoimidazolidin-1-yl)methyl)-1-(4-fluorophenyl)-1H-pyrazol-5-yl)-2-fluoro-5-(1-methyl-1H-pyrazol-3-yl)-4-(trifluoromethyl)benzamide], the IC50 stood at 1.9 nM.
To `Cc1cc(NC(=O)c2cc(-c3ccn(C)n3)c(C(F)(F)F)cc2Cl)n(-c2cc(C)[nH]n2)n1` [Compound 48, 2-chloro-N-(3,5′-dimethyl-1′H-1,3′-bipyrazol-5-yl)-5-(1-methyl-1H-pyrazol-3-yl)-4-(trifluoromethyl)benzamide] belongs 0.82 nM.
To `Cc1nc(-c2ccccc2)c(NC(=O)c2ccc(C(F)(F)F)c(-c3ccn(C)n3)c2)n1C` [Compound 14, N-(1,2-dimethyl-4-phenyl-1H-imidazol-5-yl)-3-(1-methyl-1H-pyrazol-3-yl)-4-(trifluoromethyl)benzamide] belongs 20 nM.
Next, `Cn1ccc(-c2cc(C(=O)Nc3cn(CCO)nc3-c3ccccc3)c(F)cc2C(F)(F)F)n1` [Compound 109, 2-fluoro-N-(1-(2-hydroxyethyl)-3-phenyl-1H-pyrazol-4-yl)-5-(1-methyl-1H-pyrazol-3-yl)-4-(trifluoromethyl)benzamide]: 16 nM; `CCn1ccc(-c2cc(C(=O)Nc3cc(C)nn3-c3ccc(F)cc3)ccc2C(F)(F)F)n1` [Compound 75, 3-(1-ethyl-1H-pyrazol-3-yl)-N-[1-(4-fluorophenyl)-3-methyl-1H-pyrazol-5-yl]-4-(trifluoromethyl)benzamide]: 89 nM.
`Cn1ccc(-c2cc(C(=O)Nc3cn(C)nc3-c3ccccc3)c(F)cc2C(F)(F)F)n1` [Compound 65, 2-fluoro-N-(1-methyl-3-phenyl-1H-pyrazol-4-yl)-5-(1-methyl-1H-pyrazol-3-yl)-4-(trifluoromethyl)benzamide] gave an IC50 of 4.5 nM. Against the preceding molecule, the IC50 is about 20-fold lower.
Next, `Cc1c(-c2cnn(C)c2)nn(-c2ccccc2)c1NC(=O)c1ccc(C(F)(F)F)c(-c2ccn(C)n2)c1` [Compound 44, N-(1′,4-dimethyl-1-phenyl-1H,1′H-3,4′-bipyrazol-5-yl)-3-(1-methyl-1H-pyrazol-3-yl)-4-(trifluoromethyl)benzamide]: 11 nM; `Cn1ccc(-c2cc(C(=O)Nc3c4c(nn3-c3ccccc3)CC(=O)NC4)c(F)cc2C(F)(F)F)n1` [Compound 108, 2-fluoro-5-(1-methyl-1H-pyrazol-3-yl)-N-(6-oxo-2-phenyl-4,5,6,7-tetrahydro-2H-pyrazolo[4,3-c]pyridin-3-yl)-4-(trifluoromethyl)benzamide]: 4.6 nM.
Next, `Cc1cccc(-c2cc(C(=O)Nc3cc(-c4ccncc4)nn3-c3ccc(F)cc3)ccc2C(F)(F)F)n1` [Compound 30, N-[1-(4-fluorophenyl)-3-pyridin-4-yl-1H-pyrazol-5-yl]-3-(6-methylpyridin-2-yl)-4-(trifluoromethyl)benzamide]: 5.5 nM.
In turn, `Cn1ccc(-c2cc(C(=O)Nc3cn(C)nc3-c3ccccc3)ccc2C(F)(F)F)n1` [Compound 43, N-(1-methyl-3-phenyl-1H-pyrazol-4-yl)-3-(1-methyl-1H-pyrazol-3-yl)-4-(trifluoromethyl)benzamide] had an IC50 of 11 nM.
To `O=C(Nc1cc(CCO)nn1-c1ccc(F)cc1)c1cc(-c2ncccn2)c(C(F)(F)F)cc1F` [Compound 93, 2-fluoro-N-(1-(4-fluorophenyl)-3-(2-hydroxyethyl)-1H-pyrazol-5-yl)-5-(pyrimidin-2-yl)-4-(trifluoromethyl)benzamide] belongs 12 nM; to `Cc1cc(-n2nc(-c3ccc(=O)[nH]n3)cc2NC(=O)c2ccc(C(F)(F)F)c(-c3ncccn3)c2)n[nH]1` [Compound 57, N-[5′-methyl-3-(6-oxo-1,6-dihydropyridazin-3-yl)-1′H-1,3′-bipyrazol-5-yl]-3-pyrimidin-2-yl-4-(trifluoromethyl)benzamide], 78 nM; to `Cc1cc(-n2nc(CN3CCCC3)cc2NC(=O)c2ccc(C(F)(F)F)c(-c3ccn(C)n3)c2)[nH]n1` [Compound 69, 3-(1-methyl-1H-pyrazol-3-yl)-N-[5′-methyl-3-(pyrrolidin-1-ylmethyl)-2′H-1,3′-bipyrazol-5-yl]-4-(trifluoromethyl)benzamide], 240 nM.
Next, `Cn1ccc(-c2cc(C(=O)Nc3cc(-c4ncccn4)nn3-c3ccc(F)cc3)ccc2C(F)(F)F)n1` [Compound 60, N-[1-(4-fluorophenyl)-3-pyrimidin-2-yl-1H-pyrazol-5-yl]-3-(1-methyl-1H-pyrazol-3-yl)-4-(trifluoromethyl)benzamide]: 3 nM.
Molecule `CNC(=O)c1cc(NC(=O)c2cc(-c3ncccn3)c(C(F)(F)F)cc2F)n(-c2ccc(F)cc2)n1` [Compound 86, 5-(2-fluoro-5-(pyrimidin-2-yl)-4-(trifluoromethyl)benzamido)-1-(4-fluorophenyl)-N-methyl-1H-pyrazole-3-carboxamide] yielded an IC50 of 7 nM.
Next, `Cn1ccc(-c2cc(C(=O)Nc3cc(-c4ccncc4)nn3-c3ccc(F)c(F)c3)ccc2C(F)(F)F)n1` [Compound 9, N-[1-(3,4-difluorophenyl)-3-pyridin-4-yl-1H-pyrazol-5-yl]-3-(1-methyl-1H-pyrazol-3-yl)-4-(trifluoromethyl)benzamide]: 9.7 nM.
Next, `Cn1ccc(-c2cc(C(=O)Nc3cc(CC(N)=O)nn3-c3ccc(F)cc3)c(F)cc2C(F)(F)F)n1` [Compound 111, N-(3-(2-amino-2-oxoethyl)-1-(4-fluorophenyl)-1H-pyrazol-5-yl)-2-fluoro-5-(1-methyl-1H-pyrazol-3-yl)-4-(trifluoromethyl)benzamide]: 2.4 nM.
The molecule `Cc1cc(-n2nc(C(=O)NCc3cccnc3)cc2NC(=O)c2cc(-c3ccn(C)n3)c(C(F)(F)F)cc2F)[nH]n1` [Compound 76, 5-({[2-fluoro-5-(1-methyl-1H-pyrazol-3-yl)-4-(trifluoromethyl)phenyl]carbonyl}amino)-5′-methyl-N-(pyridin-3-ylmethyl)-2′H-1,3′-bipyrazole-3-carboxamide] showed an IC50 of 0.39 nM.
`O=C(Nc1cc(-c2ccncc2)nn1-c1ccc(F)cc1)c1ccc(C(F)(F)F)c(-c2ncns2)c1` [Compound 26, N-[1-(4-fluorophenyl)-3-pyridin-4-yl-1H-pyrazol-5-yl]-3-(1,2,4-thiadiazol-5-yl)-4-(trifluoromethyl)benzamide] returned an IC50 of 350 nM.
On to `Cc1nc(-c2ccccc2)c(NC(=O)c2cc(-c3ccn(C)n3)c(C(F)(F)F)cc2F)n1C` [Compound 63, N-(1,2-dimethyl-4-phenyl-1H-imidazol-5-yl)-2-fluoro-5-(1-methyl-1H-pyrazol-3-yl)-4-(trifluoromethyl)benzamide], for which the IC50 came to 8.4 nM.
Consider `Cn1ccc(-c2cc(C(=O)Nc3cc(-c4ccncc4)nn3-c3ccccc3)c(Cl)cc2C(F)(F)F)n1` [Compound 36, 2-chloro-5-(1-methyl-1H-pyrazol-3-yl)-N-(1-phenyl-3-pyridin-4-yl-1H-pyrazol-5-yl)-4-(trifluoromethyl)benzamide], for which it took 0.37 nM to reach half-maximal inhibition (IC50).
As to `Cc1nc(NC(=O)c2ccc(C(F)(F)F)c(-c3ccn(C)n3)c2)n(-c2ccccc2)n1` [Compound 15, N-(3-methyl-1-phenyl-1H-1,2,4-triazol-5-yl)-3-(1-methyl-1H-pyrazol-3-yl)-4-(trifluoromethyl)benzamide], half-maximal inhibition (IC50) required 150 nM.
